Measurements reported in PubChem BioAssay AID330 (DTP/NCI, 2004).
“And” between values parts separate entries of the source, which are not always exact repeats. Equal values may be shown once. Inconclusive results and toxic doses are left out. How the source made its calls: active means survival T/C of 150% or more; inactive means T/C below 125% in these data.

Test system: P388 leukemia ip, CD2F1 mice, survival T/C
Experiment: NCI In Vivo Anticancer Drug Screen. Data for tumor model P388 Leukemia (intraperitoneal) in CD2F1 (CDF1) mice
Conditions: endpoint: median survival time, higher = longer survival
In short: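 Mice carrying the transplanted tumor received test compound or vehicle. Survival was recorded in each group, and the value is the treated-group measurement divided by that of the vehicle-treated control group.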

[1] = dose: 50.0 mg/kg/injection, schedule: Q01DX005 (ip), vehicle: Klucel (hydroxypropylcellulose) (HPC)
[2] = dose: 100.0 mg/kg/injection, schedule: Q01DX005 (ip), vehicle: Klucel (hydroxypropylcellulose) (HPC)
[3] = dose: 100.0 mg/kg/injection, schedule: Q01DX001 (ip), vehicle: saline with Tween-80
[4] = dose: 200.0 mg/kg/injection, schedule: Q01DX001 (ip), vehicle: saline with Tween-80
[5] = dose: 400.0 mg/kg/injection, schedule: Q01DX001 (ip), vehicle: saline with Tween-80
[6] = dose: 60.0 mg/kg/injection, schedule: Q01DX005 (ip), vehicle: Klucel (hydroxypropylcellulose) (HPC)
[7] = dose: 120.0 mg/kg/injection, schedule: Q01DX005 (ip), vehicle: Klucel (hydroxypropylcellulose) (HPC)
[8] = dose: 240.0 mg/kg/injection, schedule: Q01DX005 (ip), vehicle: Klucel (hydroxypropylcellulose) (HPC)
[9] = dose: 25.0 mg/kg/injection, schedule: Q01DX005 (ip), vehicle: Klucel (hydroxypropylcellulose) (HPC)
[10] = dose: 60.0 mg/kg/injection, schedule: Q01DX005 (ip), vehicle: saline with Tween-80
[11] = dose: 120.0 mg/kg/injection, schedule: Q01DX005 (ip), vehicle: saline with Tween-80
[12] = dose: 240.0 mg/kg/injection, schedule: Q01DX005 (ip), vehicle: saline with Tween-80
[13] = dose: 50.0 mg/kg/injection, schedule: Q01DX005 (ip), vehicle: saline with Tween-80
[14] = dose: 100.0 mg/kg/injection, schedule: Q01DX005 (ip), vehicle: saline with Tween-80
[15] = dose: 200.0 mg/kg/injection, schedule: Q01DX005 (ip), vehicle: saline with Tween-80

Measured: T/C

CC1(C)CCCC12CCN1CCC([N+](=O)[O-])C12 (centres undefined)
inactive: dose: 11.5 mg/kg/injection, schedule: Q04DX003 (ip), vehicle: saline with Tween-80 100 % of control | dose: 23.0 mg/kg/injection, schedule: Q04DX003 (ip), vehicle: saline with Tween-80 108 % of control | dose: 46.0 mg/kg/injection, schedule: Q04DX003 (ip), vehicle: saline with Tween-80 100 % of control | dose: 92.0 mg/kg/injection, schedule: Q04DX003 (ip), vehicle: saline with Tween-80 108 % of control

S=C(NCCc1ccccc1)N/N=C/c1ccc(Cl)cc1
inactive: [1] 104 % of control | [2] 100 % of control

CCCCCCCCCCN1CCOCCOCCN(CCCCCCCCCC)CCOCCOCC1
inactive: dose: 1.56 mg/kg/injection, schedule: Q01DX005 (ip), vehicle: saline with Tween-80 105 % of control | dose: 3.13 mg/kg/injection, schedule: Q01DX005 (ip), vehicle: saline with Tween-80 100 % of control | dose: 6.25 mg/kg/injection, schedule: Q01DX005 (ip), vehicle: saline with Tween-80 107 % of control | dose: 12.5 mg/kg/injection, schedule: Q01DX005 (ip), vehicle: saline with Tween-80 99 % of control

COC(=O)c1cccc2c(=O)c(CCl)c(-c3ccccc3)sc12
inactive: [3] 93 % of control | [4] 91 % of control | [5] 91 % of control

O=C1OC2(c3ccc(O)cc3Oc3cc(O)ccc32)C2C3C=CC(C3)C12 (centres undefined)
inactive: [6] 100 % of control | [7] 104 % of control | [8] 100 % of control

CC(C)(C)N1N=C2CCCC2[Si]1(C)C (centres undefined)
inactive: [9] 105 % of control | [1] 102 % of control | [2] 102 % of control

CCN1CCc2nc(N)oc2CC1
inactive: dose: 50.0 mg/kg/injection, schedule: Q01DX009 (ip), vehicle: saline 107 % of control | dose: 100.0 mg/kg/injection, schedule: Q01DX009 (ip), vehicle: saline 110 % of control | dose: 200.0 mg/kg/injection, schedule: Q01DX009 (ip), vehicle: saline 115 % of control

CCOC(=O)CNc1c2ccc(Cl)cc2nc2ccc(OC)cc12
inactive: dose: 6.25 mg/kg/injection, schedule: Q01DX009 (ip), vehicle: saline with Tween-80 97 % of control | dose: 12.5 mg/kg/injection, schedule: Q01DX009 (ip), vehicle: saline with Tween-80 104 % of control | dose: 25.0 mg/kg/injection, schedule: Q01DX009 (ip), vehicle: saline with Tween-80 111 % of control | dose: 50.0 mg/kg/injection, schedule: Q01DX009 (ip), vehicle: saline with Tween-80 108 % of control | dose: 100.0 mg/kg/injection, schedule: Q01DX009 (ip), vehicle: saline with Tween-80 104 % of control

Cc1cccc(NC(=S)NC2C(=O)Nc3ccccc32)c1 (centres undefined)
inactive: [10] 102 % of control | [11] 100 % of control | [12] 98 % of control

c1ccc(C2c3ccccc3Nc3ccccc32)cc1
inactive: dose: 6.25 mg/kg/injection, schedule: Q04DX002 (ip), vehicle: saline with Tween-80 104 % of control | dose: 12.5 mg/kg/injection, schedule: Q04DX002 (ip), vehicle: saline with Tween-80 97 % of control | dose: 25.0 mg/kg/injection, schedule: Q04DX002 (ip), vehicle: saline with Tween-80 97 % of control

CCCC(O)/C=C/C=C/C=C/C#CC#CCCCO (centres undefined)
inactive: dose: 0.25 mg/kg/injection, schedule: Q01DX005 (ip), vehicle: DMSO 105 % of control | dose: 1.0 mg/kg/injection, schedule: Q01DX005 (ip), vehicle: DMSO 101 % of control and 110 % of control | dose: 2.0 mg/kg/injection, schedule: Q01DX005 (ip), vehicle: DMSO 124 % of control and 96 % of control | dose: 4.0 mg/kg/injection, schedule: Q01DX005 (ip), vehicle: DMSO 104 % of control | dose: 8.0 mg/kg/injection, schedule: Q01DX005 (ip), vehicle: DMSO 105 % of control

CCNC(=S)N/N=C\C=N/NC(=S)NCC
inactive: dose: 75.0 mg/kg/injection, schedule: Q01DX009 (ip), vehicle: saline with Tween-80 105 % of control | dose: 150.0 mg/kg/injection, schedule: Q01DX009 (ip), vehicle: saline with Tween-80 92 % of control | dose: 300.0 mg/kg/injection, schedule: Q01DX009 (ip), vehicle: saline with Tween-80 103 % of control

CCOC(=O)C1C(c2ccc(N(C)C)cc2)c2cc3c(cc2OC1(C)N1CCCC1)OCO3 (centres undefined)
inactive: [6] 100 % of control | [7] 96 % of control | [8] 93 % of control

O=[N+]([O-])c1cccc(S(=O)(=O)N/N=C/c2cccc([N+](=O)[O-])c2O)c1
inactive: [10] 106 % of control | [11] 107 % of control | [12] 104 % of control

COc1ccc(Br)c(C(=O)O)c1OS(=O)(=O)c1ccc(C)cc1
inactive: dose: 25.0 mg/kg/injection, schedule: Q01DX009 (ip), vehicle: other 106 % of control | dose: 50.0 mg/kg/injection, schedule: Q01DX009 (ip), vehicle: other 105 % of control | dose: 100.0 mg/kg/injection, schedule: Q01DX009 (ip), vehicle: other 100 % of control | dose: 200.0 mg/kg/injection, schedule: Q01DX009 (ip), vehicle: other 105 % of control | dose: 400.0 mg/kg/injection, schedule: Q01DX009 (ip), vehicle: other 108 % of control

O=C(O)C(Cc1ccc(C(=O)C(F)(F)F)cc1)NC(=O)C(F)(F)F (centres undefined)
inactive: dose: 100.0 mg/kg/injection, schedule: Q04DX003 (ip), vehicle: saline with Tween-80 100 % of control | dose: 200.0 mg/kg/injection, schedule: Q04DX003 (ip), vehicle: saline with Tween-80 103 % of control | dose: 400.0 mg/kg/injection, schedule: Q04DX003 (ip), vehicle: saline with Tween-80 99 % of control

CC1(C)CCCC2(C)C3=C(CCC12)C(=O)OC3 (centres undefined)
inactive: [9] 101 % of control | [1] 102 % of control | [2] 100 % of control | dose: 200.0 mg/kg/injection, schedule: Q01DX005 (ip), vehicle: Klucel (hydroxypropylcellulose) (HPC) 100 % of control

COC(=O)Cn1/c(=N\N=C(/C)c2ccccc2)sc2ccccc21
inactive: [3] 102 % of control | [4] 99 % of control | [5] 99 % of control

O=C(NCCCNC(=O)C12CC3CC(CC(C3)C1)C2)C12CC3CC(CC(C3)C1)C2
inactive: [13] 98 % of control | [14] 92 % of control | [15] 100 % of control

CN(C)C(=O)NO
inactive: dose: 60.0 mg/kg/injection, schedule: Q01DX005 (ip), vehicle: saline 103 % of control | dose: 120.0 mg/kg/injection, schedule: Q01DX005 (ip), vehicle: saline 99 % of control | dose: 240.0 mg/kg/injection, schedule: Q01DX005 (ip), vehicle: saline 97 % of control

Cc1ccc(CN2CC(=O)N3Cc4ccccc4CN3C(=O)C2)cc1
inactive: [13] 103 % of control | [14] 116 % of control | [15] 98 % of control

Cc1ccc(C2(O)c3ccccc3N=NN2C)cc1 (centres undefined)
inactive: [13] 100 % of control | [14] 100 % of control | [15] 96 % of control
